Measurements: article PMC11188874, “HDAC6 Inhibition Releases HR23B to Activate Proteasomes, Expand the Tumor Immunopeptidome and Amplify T-cell Antimyeloma Activity” (Cancer Research Communications, 2024)
Several values for one entry are separate records, joined by “and”; a condition that tells them apart may be missing. Equal values may be shown once. Read-outs that look alike come from different tables or passages of the source. Peptide text beside a SMILES is read from it. * marks the point of attachment. Cbz = O=C(OCc1ccccc1)*

Legend:
[1] = system: proteasome ChT-like activity in RPMI-8226 cells; assay: Cell-based high-throughput screen of proteasome ChT-like activity (LLVY-R110); design: species or system human; conditions: 3 µmol/L, 21 hours, then LLVY-R110 18 hours
[2] = Cell viability, XTT assay; format: cell-based; conditions: human, RPMI-8226 cells, XTT (Fig. 1C, 1D), read-out: cell viability maintained
Experimental: Cell viability was determined using the XTT assay ([23]). Briefly, 50,000 cells were added to 96-well plates in a volume of 250 µL in RPMI media that lacked phenol red. Drugs were added at indicated concentrations and plates incubated under standard conditions for 72 hours. XTT sodium salt tetrazolium reagent (Gold Biotechnology, catalog no. X-200) was diluted in PBS (1 mg/mL) containing phenazine methosulfate (PMS, 7.5 µg/mL). Cells were incubated with the XTT+PMS reagent for 3 hours at 37°C and absorbance was measured at 450 nm using a Molecular Devices i3x Spectramax plate reader.

[3] = system: proteasome ChT-like activity in MMCLs; assay: Proteasome ChT-like activity in cultured multiple myeloma cells (LLVY-R110); conditions: for increase in proteasome activity: RPMI-8226 cells, 1 µmol/L, 72 hours (Fig. 1B, 1D); for proteasome activity (in words): MM cells, 1 uM, 72 h (Fig. S14C, S14D)
E.G7-Ova cells [4] = assay: Quantitation of […]–MHC-I complex by flow cytometry; format: cell-based, mouse; conditions: for increase in presentation of the class I molecule–SIINFEKL complex: normalized to untreated (Fig. 2A)
27 cancer cell lines [5] = conditions: 1 µmol/L, 72 hours
E.G7-Ova cells [6] = assay: B3Z T-cell hybridoma assay, annexin-V/propidium iodide; format: cell-based, mouse; conditions: pretreatment 1 µmol/L 72 hours, E:T 2:1 (Fig. 2C)
RPMI-8226 cells = assay: Myeloma MHC-I immunopeptidome analysis by MS; format: cell-based, human; conditions: 1 µmol/L
27 cancer cell lines [7] = assay: Proteasome activity in a panel of cancer cell lines (LLVY-R110); conditions: 1 µmol/L, 72 hours; for Number of Cell Lines: Both Increased: proteasome activity and class I presentation
E.G7-Ova cells [8] = assay: Murine MHC-I immunopeptidome analysis by MS; format: cell-based, mouse; conditions: 1 µmol/L, 72 hours
HDAC10 = biological target: T1, HDAC10 (Homo sapiens, UniProt Q969S8); assay: In vitro biochemical activity assay, HDAC10; conditions: for IC50: 10-dose, 3-fold serial dilution, Data 1-3 are triplicates, substrate Ac-spermidine-AMC
T1 construct: purchased Reaction Biology (Malvern, PA)
T1 sequence (Q969S8 1-669): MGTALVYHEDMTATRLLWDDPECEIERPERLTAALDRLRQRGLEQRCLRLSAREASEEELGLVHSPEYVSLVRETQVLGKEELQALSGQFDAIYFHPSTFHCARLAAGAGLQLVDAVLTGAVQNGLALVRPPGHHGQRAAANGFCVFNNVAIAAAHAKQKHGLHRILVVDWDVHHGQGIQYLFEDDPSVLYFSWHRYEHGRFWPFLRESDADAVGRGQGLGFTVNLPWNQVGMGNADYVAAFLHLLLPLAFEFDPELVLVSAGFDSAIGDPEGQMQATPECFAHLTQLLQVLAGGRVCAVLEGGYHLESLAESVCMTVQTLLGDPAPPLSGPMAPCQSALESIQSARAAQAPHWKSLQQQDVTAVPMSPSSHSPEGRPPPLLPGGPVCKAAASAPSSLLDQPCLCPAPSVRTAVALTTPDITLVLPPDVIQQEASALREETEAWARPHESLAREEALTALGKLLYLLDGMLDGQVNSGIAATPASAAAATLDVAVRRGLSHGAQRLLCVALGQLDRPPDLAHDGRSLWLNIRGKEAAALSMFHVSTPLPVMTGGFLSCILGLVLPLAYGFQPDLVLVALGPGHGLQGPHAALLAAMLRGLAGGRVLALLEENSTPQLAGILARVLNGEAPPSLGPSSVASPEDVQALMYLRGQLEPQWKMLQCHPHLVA

purified proteasomes = assay: Activity of proteasomes purified by conventional methods; format: biochemical
MMCLs = assay: pan-HLA-ABC presentation in MMCLs by flow cytometry; format: cell-based, human; conditions: pan-HLA ABC antibody
[9] = RPMI-8226 multiple myeloma cells

COc1ccc(C[C@H](NC(=O)[C@H](C)NC(=O)CN2CCOCC2)C(=O)N[C@@H](Cc2ccccc2)C(=O)C2(C)CO2)cc1 (stereo in doubt) [ONX-0914]
Fold-Decrease of proteasome ChT-like activity in the HTS [1]: 4 fold

O.c1cnc2c(c1)ccc1cccnc12 [1,10-phenanthroline monohydrate]
viability at 16 h, 1 µmol/L [2]: ≥ 75%
Fold-Increase of proteasome ChT-like activity in the HTS [1]: 1.3 fold
increase in proteasome activity [3]: ≥ 30%

COC1=C(OC)C(=O)c2ccccc2C1=O [2,3-Dimethoxy-1,4-naphthoquinone]
Fold-Increase of proteasome ChT-like activity in the HTS [1]: 1.2 fold

O=C(NO)c1cnc(NC2(c3ccccc3)CC2)nc1 [ACY-738]
increase in presentation of the class I molecule–SIINFEKL complex (E.G7-Ova cells [4]): over 3 fold
viability at 16 h, 1 µmol/L [2, 9]: ≥ 75%
Number of Cell Lines: Increased Class I Presentation (27 cancer cell lines [5]): 23 cell lines
Fold-Increase of proteasome ChT-like activity in the HTS [1]: 1.6 fold
number of CD8neg/annexin-V+/propidium iodide+ E.G7-Ova cells after coculture with B3Z cells (E.G7-Ova cells [6]): significantly increased
number of peptides increased more than 20-fold (RPMI-8226 cells; 72 hours): four
number of peptides with ≥2-fold increase (RPMI-8226 cells; 72 hours, 8,019 peptides detected): 118 peptides
Number of Cell Lines: Increased Proteasome Activity (27 cancer cell lines [7]): 19 cell lines
Number of Cell Lines: Both Increased (27 cancer cell lines [7]): 18 cell lines
peak area of SIINFEKL compared with untreated (E.G7-Ova cells [8]): 1.5 fold
increase in proteasome activity [3]: ≥ 30%

O=C(CCCCCCNC(=O)c1cnc(N(c2ccccc2)c2ccccc2)nc1)NO [ACY-1215]
increase in presentation of the class I molecule–SIINFEKL complex (E.G7-Ova cells [4]): over 3 fold
viability at 16 h, 1 µmol/L [2, 9]: ≥ 75%
Number of Cell Lines: Increased Class I Presentation (27 cancer cell lines [5]): 19 cell lines
IC50 (HDAC10): 368 nM and 333 nM and 356 nM
number of CD8neg/annexin-V+/propidium iodide+ E.G7-Ova cells after coculture with B3Z cells (E.G7-Ova cells [6]): significantly increased
Number of Cell Lines: Increased Proteasome Activity (27 cancer cell lines [7]): 21 cell lines
Number of Cell Lines: Both Increased (27 cancer cell lines [7]): 18 cell lines
increase in proteasome activity [3]: ≥ 30%

CC(=O)O[C@H]1CC[C@@]2(C)C(=CC[C@@H]3[C@@H]2CC[C@]2(C)C(c4cccnc4)=CC[C@@H]32)C1 [Abiraterone acetate]
direct effect on the activity of purified proteasomes (purified proteasomes): did not observe a direct effect
Fold-Increase of proteasome ChT-like activity in the HTS [1]: 1.7 fold

COc1ccc(-c2ccc3ncc4c(c3c2)n(-c2ccc(N3CCNCC3)c(C(F)(F)F)c2)c(=O)n4C)cn1 [BGT226]
Fold-Decrease of proteasome ChT-like activity in the HTS [1]: 25 fold

C=C(C)[C@@H]1CC[C@]2(C(=O)O)CC[C@]3(C)[C@H](CC[C@@H]4[C@@]5(C)CC[C@H](O)C(C)(C)[C@@H]5CC[C@]43C)[C@@H]12 [Betulinic acid]
Fold-Increase of proteasome ChT-like activity in the HTS [1]: 1.3 fold

CC(C)C[C@H](NC(=O)[C@@H](NC(=O)c1cccc(-c2ccccc2)n1)[C@@H](C)O)B(O)O [CEP-18770]
Fold-Decrease of proteasome ChT-like activity in the HTS [1]: 4 fold

CNc1ccc2oc(C[C@H]3O[C@@]4(CC[C@H]3C)O[C@H]([C@H](C)C(=O)c3ccc[nH]3)[C@H](C)C[C@H]4C)nc2c1C(=O)O [Calcimycin]
Fold-Decrease of proteasome ChT-like activity in the HTS [1]: 5 fold

CC(C)C[C@H](NC(=O)[C@H](CCc1ccccc1)NC(=O)CN1CCOCC1)C(=O)N[C@@H](Cc1ccccc1)C(=O)N[C@@H](CC(C)C)C(=O)[C@@]1(C)CO1 [Carfilzomib]
Fold-Decrease of proteasome ChT-like activity in the HTS [1]: 54 fold

CN(CCCCCCNc1ccnc2cc(Cl)ccc12)CCCCCCNc1ccnc2cc(Cl)ccc12 [DC-661]
direct effect on the activity of purified proteasomes (purified proteasomes): did not observe a direct effect
Fold-Increase of proteasome ChT-like activity in the HTS [1]: 1.6 fold

OCCN(CCO)c1nc(N2CCCCC2)c2nc(N(CCO)CCO)nc(N3CCCCC3)c2n1 [Dipyridamole]
Fold-Increase of proteasome ChT-like activity in the HTS [1]: 2.0 fold

COc1cccc2c1C(=O)c1c(O)c3c(c(O)c1C2=O)C[C@@](O)(C(=O)CO)C[C@@H]3O[C@H]1C[C@H](N)[C@@H](O)[C@H](C)O1 [Epirubicin]
Fold-Decrease of proteasome ChT-like activity in the HTS [1]: 4 fold

CCN(CCO)CCCC(C)Nc1ccnc2cc(Cl)ccc12 (centres unmarked) [Hydroxychloroquine]
Fold-Increase of proteasome ChT-like activity in the HTS [1]: 1.2 fold

CC(C)C[C@@H](C=O)NC(=O)[C@H](CC(C)C)NC(=O)[C@H](CC(C)C)NC(=O)OCc1ccccc1 [MG-132] (Cbz-Leu-Leu-Leu-aldehyde)
Fold-Decrease of proteasome ChT-like activity in the HTS [1]: 16 fold

COC[C@H](NC(=O)c1cnc(C)s1)C(=O)N[C@@H](COC)C(=O)N[C@@H](Cc1ccccc1)C(=O)[C@@]1(C)CO1 [ONX-0912]
Fold-Decrease of proteasome ChT-like activity in the HTS [1]: 4 fold

C1=C/COCc2cc(ccc2OCCN2CCCC2)Nc2nccc(n2)-c2cccc(c2)COC/1 [Pacritinib]
Fold-Decrease of proteasome ChT-like activity in the HTS [1]: 5 fold

Cn1cc(CNCC2CCN(c3ncc(C(=O)NO)cn3)CC2)c2ccccc21 [Quisinostat]
IC50 (HDAC10): 4.89 nM

CO[C@H]1C[C@@H]2CC[C@@H](C)[C@@](O)(O2)C(=O)C(=O)N2CCCC[C@H]2C(=O)O[C@H]([C@H](C)C[C@@H]2CC[C@@H](O)[C@H](OC)C2)CC(=O)[C@H](C)/C=C(\C)[C@@H](O)[C@@H](OC)C(=O)[C@H](C)C[C@H](C)/C=C/C=C/C=C/1C [Rapamycin]
Fold-Increase of proteasome ChT-like activity in the HTS [1]: 1.8 fold

Nc1nc2ccc(OC(F)(F)F)cc2s1 [Riluzole]
direct effect on the activity of purified proteasomes (purified proteasomes): did not observe a direct effect

COc1ccc(C2CNC(=O)C2)cc1OC1CCCC1 (centres unmarked) [Rolipram]
Fold-Increase of proteasome ChT-like activity in the HTS [1]: 1.3 fold

COc1ccccc1CN(C)C(=O)Cn1c(CCC(=O)O)nc2c(Cl)cccc2c1=O [SGC-UBD253N]
SIINFEKL–MHC-I complex presentation (in words) (E.G7-Ova cells [4]): not changed
pan-MHC-I presentation on MMCLs (MMCLs): did not increase

COc1ccccc1CNC(=O)Cn1c(CCC(=O)O)nc2c(Cl)cccc2c1=O [SGC-UBD253]
SIINFEKL–MHC-I complex presentation (in words) (E.G7-Ova cells [4]): increased
pan-MHC-I presentation on MMCLs (MMCLs): increased pan-MHC-I presentation in a dose-dependent manner

CC[C@@H](C(=O)[C@@H](C)[C@@H](O)[C@H](C)[C@@H]1O[C@@H]([C@@H](CC)C(=O)O)CC[C@@H]1C)[C@H]1O[C@]2(C=C[C@@H](O)[C@]3(CC[C@@](C)([C@H]4CC[C@](O)(CC)[C@H](C)O4)O3)O2)[C@H](C)C[C@@H]1C [Salinomycin]
direct effect on the activity of purified proteasomes (purified proteasomes): did not observe a direct effect
Fold-Increase of proteasome ChT-like activity in the HTS [1]: 2.0 fold

C=C[C@](C)(O)CC[C@@H]1[C@@]2(C)CCCC(C)(C)[C@@H]2CC[C@@]1(C)O [Sclareol]
Fold-Increase of proteasome ChT-like activity in the HTS [1]: 1.4 fold

CN1CCc2c(c3ccccc3n2Cc2ccc(C(=O)NO)cc2)C1 [Tubastatin-A]
increase in presentation of the class I molecule–SIINFEKL complex (E.G7-Ova cells [4]): over 3 fold
viability at 16 h, 1 µmol/L [2, 9]: ≥ 75%
Number of Cell Lines: Increased Class I Presentation (27 cancer cell lines [5]): 19 cell lines
effect on HDAC10 biochemical activity (HDAC10; at higher concentrations): inhibited
number of CD8neg/annexin-V+/propidium iodide+ E.G7-Ova cells after coculture with B3Z cells (E.G7-Ova cells [6]): significantly increased
global peak intensity of peptides (RPMI-8226 cells; 72 hours): approximately 2 fold
Number of Cell Lines: Increased Proteasome Activity (27 cancer cell lines [7]): 17 cell lines
Number of Cell Lines: Both Increased (27 cancer cell lines [7]): 16 cell lines
peak area of SIINFEKL compared with untreated (E.G7-Ova cells [8]): 1.5 fold
increase in proteasome activity [3]: ≥ 30%

COCCn1c2c([n+](Cc3cnccn3)c1C)C(=O)c1ccccc1C2=O [YM155]
Fold-Decrease of proteasome ChT-like activity in the HTS [1]: 11 fold

CN(C)CCc1c[nH]c2ccc(C[C@H]3COC(=O)N3)cc12 [Zolmitriptan]
Fold-Decrease of proteasome ChT-like activity in the HTS [1]: 4 fold

Cc1[nH]c2ccccc2c1CCNCc1ccc(/C=C/C(=O)NO)cc1 [panobinostat]
proteasome activity (in words) [3]: did not significantly increase

C/C=C1\NC(=O)[C@H]2CSSCC/C=C/[C@H](CC(=O)N[C@H](C(C)C)C(=O)N2)OC(=O)[C@H](C(C)C)NC1=O [romidepsin]
proteasome activity (in words) [3]: did not significantly increase

O=C(CCCCCCC(=O)Nc1ccccc1)NO [vorinostat, suberoylanilide hydroxamic acid]
proteasome activity (in words) [3]: did not significantly increase
